Measured values taken from patent US20060217294A1, “Compounds binding to p-selectin” (YAMANOUCHI EUROPE B.V., priority 2002, published 2006).
Numbered stars: 1 amine (or outer) side, 2 acyl side, 3 side chain; on linkers, the order of the positions; unused ones are H or OH. Square brackets hold non-standard residues; d marks the D form. Peptide text beside a SMILES is read from it. * marks the point of attachment. Trimesoyl = O=C(c1cc(C(=O)[*:2])cc(C(=O)[*:3])c1)[*:1]; Thiophene2carbonyl = O=C(c1cccs1)*; 1Naphthoyl = O=C(c1cccc2ccccc12)*; Galloyl = O=C(c1cc(O)c(O)c(O)c1)*; Trx = NC[C@H]1CC[C@H](C(=O)O)CC1; 4Amb = NCc1ccc(C(=O)O)cc1; 4Abz = Nc1ccc(C(=O)O)cc1; Butyryl = CCCC(=O)*; Bz = O=C(c1ccccc1)*; X1 = CN(C)CCCC(=O)*; Ahx = NCCCCCC(=O)O; GABA = NCCCC(=O)O

Biological target: T1, human P-selectin (Homo sapiens, UniProt P16109)
T1 construct: IgG-Fc (fusion partner); purchased R&D Systems Europe Ltd., Abingdon, United Kingdom
Assay: not given
Settings: Table 2; values marked b, from not pre-published European patent application 01203314.8; read-out: IC50 for human P-selectin as determined by competition Elisa; cited from earlier work

T1 sequence (P16109 with tags, fused parts or gaps limits assumed): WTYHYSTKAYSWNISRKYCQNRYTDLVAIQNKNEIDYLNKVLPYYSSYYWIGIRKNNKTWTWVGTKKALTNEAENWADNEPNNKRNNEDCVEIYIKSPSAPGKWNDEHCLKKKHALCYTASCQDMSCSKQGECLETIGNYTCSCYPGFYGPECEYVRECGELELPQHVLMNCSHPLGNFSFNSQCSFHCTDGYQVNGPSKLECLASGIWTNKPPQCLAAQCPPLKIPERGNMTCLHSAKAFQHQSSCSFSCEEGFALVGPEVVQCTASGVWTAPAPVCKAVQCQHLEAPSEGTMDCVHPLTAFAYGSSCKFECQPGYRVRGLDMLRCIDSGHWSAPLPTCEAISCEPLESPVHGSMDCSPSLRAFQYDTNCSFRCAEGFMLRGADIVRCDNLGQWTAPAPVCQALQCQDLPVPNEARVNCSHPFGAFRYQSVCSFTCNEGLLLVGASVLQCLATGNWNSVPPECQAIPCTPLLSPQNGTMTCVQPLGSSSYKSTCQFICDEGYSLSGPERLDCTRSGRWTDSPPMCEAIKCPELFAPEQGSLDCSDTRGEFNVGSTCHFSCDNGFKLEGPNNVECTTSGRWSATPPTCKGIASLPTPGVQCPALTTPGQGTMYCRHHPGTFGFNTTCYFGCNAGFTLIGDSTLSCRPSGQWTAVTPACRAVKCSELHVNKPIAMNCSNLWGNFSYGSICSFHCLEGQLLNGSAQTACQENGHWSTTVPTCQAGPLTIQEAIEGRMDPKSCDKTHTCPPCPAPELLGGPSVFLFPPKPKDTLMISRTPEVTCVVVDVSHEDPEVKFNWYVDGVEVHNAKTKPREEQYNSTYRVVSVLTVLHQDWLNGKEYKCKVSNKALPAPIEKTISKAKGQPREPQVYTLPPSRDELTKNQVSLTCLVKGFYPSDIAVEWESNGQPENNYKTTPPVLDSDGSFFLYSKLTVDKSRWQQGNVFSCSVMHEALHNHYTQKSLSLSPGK

Row | Compound | IC50 [µM]
1 | AWVDV [Peptide A131] | 27
2 | CDVEWVDVSSLEWDLPC [TM11] | 2
3 | DWVDV [Peptide A129] | 16
4 | EWVDV [Peptide A29] | 8
5 | KWVDV [Peptide A130] | 28
6 | WVDV [Peptide A138] | > 1000

Biological target: T1, human P-selectin
Assay: Competition assay with TM11-PO (competition ELISA)
Type: binding
Settings: Table 1; derivatised peptides HPij; inhibition of TM11-PO binding to human P-selectin; read-out: IC50
Method: Compounds according to the invention, as prepared in examples 1, 2 and 3 and some reference peptide compounds were assayed for its ability to inhibit TM11-PO binding to human P-selectin. […] For competition studies, a 96 wells microtiter plate (high binding, flat bottom, Costar, Corning, U.S.A.) was coated overnight at 4° C. with 10 μg/ml goat anti-human IgG (Fc specific) (Sigma-Aldrich, Zwijndrecht, the Netherlands) in coating buffer (50 mM NaHCO3, pH 9.6). Subsequently, wells were washed with assay buffer and incubated for 1 hour at 37° C. with blocking buffer (3% BSA in assay buffer). After washing with assay buffer, the wells were incubated for 2 hours at 37° C. with the human P-selectin IgG-Fc chimera (R&D Systems Europe Ltd., Abingdon, United Kingdom) (0.3 μg/ml). Subsequently, wells were washed with assay buffer and incubated for 1 hour at 4° C. with the TM11-PO complex. The wells were washed six times with washing buffer (0.1% Tween 20 in assay buffer). […] (TMB)/hydrogen peroxide (H2O2) (Pierce, Rochford, U.S.A.) was added and wells were incubated at room temperature for 15 minutes. The reaction was halted by addition of 2 M H2SO4 and the absorbance was measured at 450 nm.

Row | IC50 [nM] | Compound
7 | 6000 | CC(C)[C@H](NC(=O)[C@H](CC(=O)O)NC(=O)[C@@H](NC(=O)[C@H](Cc1c[nH]c2ccccc12)NC(=O)[C@@H](N)CCC(=O)O)C(C)C)C(=O)N[C@@H](CCCCNC(=O)c1cc(O)c(O)c(O)c1)C(=O)NCCCC(=O)O [HP06] (H-EWVDVK(Galloyl)[GABA]-OH)
8 | 1020 | CC(C)[C@H](NC(=O)[C@H](CC(=O)O)NC(=O)[C@@H](NC(=O)[C@H](Cc1c[nH]c2ccccc12)NC(=O)[C@H](CCC(=O)O)NC(=O)c1cc(C(=O)O)cc(C(=O)O)c1)C(C)C)C(=O)N[C@@H](CCCCNC(=O)c1cccc2ccccc12)C(=O)NCCCC(=O)O [HP14] (Trimesoyl-EWVDVK(1Naphthoyl)[GABA]-OH)
9 | 310 | CC(C)[C@H](NC(=O)[C@H](CC(=O)O)NC(=O)[C@@H](NC(=O)[C@H](Cc1c[nH]c2ccccc12)NC(=O)[C@H](CCC(=O)O)NC(=O)c1cc(C(=O)O)cc(C(=O)O)c1)C(C)C)C(=O)N[C@@H](CCCCNC(=O)c1cc(O)c(O)c(O)c1)C(=O)NCCCC(=O)O [HP16] (Trimesoyl-EWVDVK(Galloyl)[GABA]-OH)
10 | 450 | CC(C)[C@H](NC(=O)[C@H](CC(=O)O)NC(=O)[C@@H](NC(=O)[C@H](Cc1c[nH]c2ccccc12)NC(=O)[C@H](CCC(=O)O)NC(=O)c1cc(C(=O)O)cc(C(=O)O)c1)C(C)C)C(=O)N[C@@H](CCCCNC(=O)c1ccccc1)C(=O)NCCCC(=O)O [HP17] (Trimesoyl-EWVDVK(Bz)[GABA]-OH)
11 | 1100 | CC(C)[C@H](NC(=O)[C@H](CC(=O)O)NC(=O)[C@@H](NC(=O)[C@H](Cc1c[nH]c2ccccc12)NC(=O)[C@H](CCC(=O)O)NC(=O)c1cc(O)c(O)c(O)c1)C(C)C)C(=O)N[C@@H](CCCCN)C(=O)NCCCC(=O)O [HP60] (Galloyl-EWVDVK[GABA]-OH)
12 | 190 | CC(C)[C@H](NC(=O)[C@H](CC(=O)O)NC(=O)[C@@H](NC(=O)[C@H](Cc1c[nH]c2ccccc12)NC(=O)[C@H](CCC(=O)O)NC(=O)c1cc(O)c(O)c(O)c1)C(C)C)C(=O)N[C@@H](CCCCNC(=O)c1cc(C(=O)O)cc(C(=O)O)c1)C(=O)NCCCC(=O)O [HP61] (Galloyl-EWVDVK(Trimesoyl)[GABA]-OH)
13 | 280 | CC(C)[C@H](NC(=O)[C@H](CC(=O)O)NC(=O)[C@@H](NC(=O)[C@H](Cc1c[nH]c2ccccc12)NC(=O)[C@H](CCC(=O)O)NC(=O)c1cc(O)c(O)c(O)c1)C(C)C)C(=O)N[C@@H](CCCCNC(=O)CCCN(C)C)C(=O)NCCCC(=O)O [HP62] (Galloyl-EWVDVK(X1)[GABA]-OH)
14 | 3400 | CC(C)[C@H](NC(=O)[C@H](CC(=O)O)NC(=O)[C@@H](NC(=O)[C@H](Cc1c[nH]c2ccccc12)NC(=O)[C@H](CCC(=O)O)NC(=O)c1cc(O)c(O)c(O)c1)C(C)C)C(=O)N[C@@H](CCCCNC(=O)c1cccs1)C(=O)NCCCC(=O)O [HP63] (Galloyl-EWVDVK(Thiophene2carbonyl)[GABA]-OH)
15 | 2350 | CCCC(=O)NCCCC[C@H](NC(=O)[C@@H](NC(=O)[C@H](CC(=O)O)NC(=O)[C@@H](NC(=O)[C@H](Cc1c[nH]c2ccccc12)NC(=O)[C@H](CCC(=O)O)NC(=O)c1cc(O)c(O)c(O)c1)C(C)C)C(C)C)C(=O)NCCCC(=O)O [HP65] (Galloyl-EWVDVK(Butyryl)[GABA]-OH)

Same assay, conditions: Table 2; average of at least 3 experiments at 8 concentrations, TM11-PO competition ELISA; read-out: IC50 for human P-selectin as determined by competition Elisa

Row | IC50 [nM] | Compound
16 | 37 | CC(C)[C@H](NC(=O)[C@H](CC(=O)O)NC(=O)[C@@H](NC(=O)[C@H](Cc1c[nH]c2ccccc12)NC(=O)c1cc(O)c(O)c(O)c1)C(C)C)C(=O)O [Peptide 12, GA-WVDV] (Galloyl-WVDV-OH)

Same assay, conditions: Table 3; gallic acid derivatized peptides; mean of at least 3 experiments at 8 concentrations; read-out: IC50 for human P-selectin as determined by competition Elisa

Row | IC50 [nM] | Compound
17 | 37.1 | CC(C)[C@H](NC(=O)[C@H](CC(=O)O)NC(=O)[C@@H](NC(=O)[C@H](Cc1c[nH]c2ccccc12)NC(=O)c1cc(O)c(O)c(O)c1)C(C)C)C(=O)O [Peptide 12, GA-WVDV] (Galloyl-WVDV-OH)
18 | 18.3 | CC(C)[C@H](NC(=O)[C@H](CC(=O)O)NC(=O)[C@@H](NC(=O)[C@H](Cc1c[nH]c2ccccc12)NC(=O)CNC(=O)c1cc(O)c(O)c(O)c1)C(C)C)C(=O)O [Peptide 27] (Galloyl-GWVDV-OH)
19 | 15.4 | CC(C)[C@H](NC(=O)[C@H](CC(=O)O)NC(=O)[C@@H](NC(=O)[C@H](Cc1c[nH]c2ccccc12)NC(=O)CCCNC(=O)c1cc(O)c(O)c(O)c1)C(C)C)C(=O)O [Peptide 28] ({Galloyl-GABA}-WVDV-OH)
20 | 62.9 | CC(C)[C@H](NC(=O)[C@H](CC(=O)O)NC(=O)[C@@H](NC(=O)[C@H](Cc1c[nH]c2ccccc12)NC(=O)CCCCCNC(=O)c1cc(O)c(O)c(O)c1)C(C)C)C(=O)O [Peptide 29] ({Galloyl-Ahx}-WVDV-OH)
21 | 250 | CC(C)[C@H](NC(=O)[C@H](CC(=O)O)NC(=O)[C@@H](NC(=O)[C@H](Cc1c[nH]c2ccccc12)NC(=O)[C@@H]1CCCN1C(=O)c1cc(O)c(O)c(O)c1)C(C)C)C(=O)O [Peptide 30] (Galloyl-PWVDV-OH)
22 | 590 | CC(C)[C@H](NC(=O)[C@H](CC(=O)O)NC(=O)[C@@H](NC(=O)[C@H](Cc1c[nH]c2ccccc12)NC(=O)c1ccc(CNC(=O)c2cc(O)c(O)c(O)c2)cc1)C(C)C)C(=O)O [Peptide 32] ({Galloyl-4Amb}-WVDV-OH)
23 | 580 | CC(C)[C@H](NC(=O)[C@H](CC(=O)O)NC(=O)[C@@H](NC(=O)[C@H](Cc1c[nH]c2ccccc12)NC(=O)[C@H]1CC[C@H](CNC(=O)c2cc(O)c(O)c(O)c2)CC1)C(C)C)C(=O)O [Peptide 33] ({Galloyl-Trx}-WVDV-OH)

Row | Compound | IC50 [nM]
24 | CC(C)[C@H](NC(=O)[C@H](CC(=O)O)NC(=O)[C@@H](NC(=O)[C@H](Cc1c[nH]c2ccccc12)NC(=O)c1ccc(NC(=O)c2cc(O)c(O)c(O)c2)cc1)C(C)C)C(=O)O [Peptide 31] ({Galloyl-4Abz}-WVDV-OH) | > 1000

Biological target: T2, P-selectin (Homo sapiens, UniProt P16109)
T2 sequence (P16109 42-830): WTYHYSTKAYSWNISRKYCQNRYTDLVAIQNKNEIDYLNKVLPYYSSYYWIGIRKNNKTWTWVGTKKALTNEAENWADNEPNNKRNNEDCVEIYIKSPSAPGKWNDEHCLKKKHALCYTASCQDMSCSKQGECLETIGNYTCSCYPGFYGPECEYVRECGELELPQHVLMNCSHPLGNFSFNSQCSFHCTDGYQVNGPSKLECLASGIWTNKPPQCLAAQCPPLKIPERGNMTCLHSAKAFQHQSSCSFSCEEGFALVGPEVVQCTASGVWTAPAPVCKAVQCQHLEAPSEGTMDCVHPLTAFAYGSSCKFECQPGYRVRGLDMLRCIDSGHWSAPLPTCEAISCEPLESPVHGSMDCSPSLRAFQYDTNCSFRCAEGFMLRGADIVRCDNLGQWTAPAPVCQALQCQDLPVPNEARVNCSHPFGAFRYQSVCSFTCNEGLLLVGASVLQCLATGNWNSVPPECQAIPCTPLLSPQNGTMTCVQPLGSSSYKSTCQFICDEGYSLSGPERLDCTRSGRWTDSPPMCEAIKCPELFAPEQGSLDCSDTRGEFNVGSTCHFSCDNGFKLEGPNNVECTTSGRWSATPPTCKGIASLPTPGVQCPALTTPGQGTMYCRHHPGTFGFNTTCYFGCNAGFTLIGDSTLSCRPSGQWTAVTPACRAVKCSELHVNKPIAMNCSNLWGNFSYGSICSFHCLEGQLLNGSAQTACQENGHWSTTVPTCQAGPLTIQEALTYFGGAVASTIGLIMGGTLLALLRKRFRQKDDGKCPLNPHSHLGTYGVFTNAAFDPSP
Assay: not given
Settings: described in European patent application No. 01203314.8; read-out: affinity for P-selectin, IC50; cited from earlier work

Row | Compound | IC50 [nM]
25 | EWVDV [Peptide A29] | ~2000
